Read-outs that look alike come from different tables or passages of the source.
Key:
[1] = target: T1, Type II 5α-Reductase from Human Prostate (Homo sapiens, UniProt P31213); test: Human Type II 5α-reductase assay (conversion of [3H]-testosterone to 5α-reduced metabolites); format: biochemical
T1 construct: The same procedure as above was used for preparations using tissue from prostate surgery; from tissue; host or cells: human prostate tissue from surgery, homogenate, 100,000×g pellet
T1 sequence (P31213 1-254): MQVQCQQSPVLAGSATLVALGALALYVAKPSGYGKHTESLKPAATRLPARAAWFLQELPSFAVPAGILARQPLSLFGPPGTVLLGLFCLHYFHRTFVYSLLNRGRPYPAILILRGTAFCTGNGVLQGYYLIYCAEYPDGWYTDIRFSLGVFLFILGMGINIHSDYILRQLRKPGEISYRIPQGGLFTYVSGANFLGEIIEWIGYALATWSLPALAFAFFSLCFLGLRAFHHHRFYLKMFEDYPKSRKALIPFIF

[2] = target: T2, Type I 5α-Reductase from Human Scalp (Homo sapiens, UniProt P18405); test: Human Type I 5α-reductase assay (conversion of [3H]-testosterone to 5α-reduced metabolites); format: biochemical
T2 construct: Scalp punch biopsies from graft recipient sites were obtained from human hair transplant procedures; from tissue; host or cells: human scalp punch biopsies (hair transplant graft recipient sites), homogenate, 100,000×g pellet
T2 sequence (P18405 1-259): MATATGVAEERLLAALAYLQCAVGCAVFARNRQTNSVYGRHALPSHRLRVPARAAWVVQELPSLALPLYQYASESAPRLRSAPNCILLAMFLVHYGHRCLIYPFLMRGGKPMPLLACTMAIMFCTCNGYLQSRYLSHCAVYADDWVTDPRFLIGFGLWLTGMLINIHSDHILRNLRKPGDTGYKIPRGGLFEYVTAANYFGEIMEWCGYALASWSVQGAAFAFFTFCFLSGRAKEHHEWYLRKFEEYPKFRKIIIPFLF

[3] = pH 5.5, 0.3 μM, sodium acetate pH 5.5, 25°, 30 min, compared to control reaction mixtures, read-out: percent inhibition of Type II AR
[4] = pH 7.5, 0.3 μM, 50 nM [3H]-testosterone, pH 7.5, 25°, 180 min, compared to control reaction mixtures, read-out: percent inhibition of Type I AR
[5] = pH 5.5, read-out: percent inhibition of Type II AR
[6] = pH 7.5, read-out: percent inhibition of Type I AR

SMILES	inhibition at 0.3 µM [1, 3]	inhibition at 0.3 µM [2, 4]	inhibition at 0.3 µM [1, 5]	inhibition at 0.3 µM [2, 6]
CN1C(=O)CC[C@]2(C)c3ccc(Sc4nc5ccc(Cl)cc5s4)cc3CC[C@@H]12 [Example 158, (+)-(4aR)-(10bR)-4-methyl-8-(6-chloro-2-benzothiazolylthio)-10b-methyl-1,2,3,4,4a,5,6,10b-octahydrobenzo[f]quinolin-3-one]	63%	78%	–	–
Cc1ccc(-c2ccc3c(c2)CC[C@H]2N(C)C(=O)CC[C@]32C)cc1 [Example 51, (+)-(4aR)-(10bR)-4-methyl-8-(4-methylphenyl)-10b-methyl-1,2,3,4,4a,5,6,10b-octahydrobenzo[f]quinolin-3-one]	14%	91%	–	–
CN1C(=O)CC[C@]2(C)c3ccc(-c4ccc5c(c4)OCCO5)cc3CC[C@@H]12 [Example 29, (+)-(4aR)-(10bR)-4-methyl-8-(3,4-ethylenedioxyphenyl)-10b-methyl-1,2,3,4,4a,5,6,10b-octahydrobenzo[f]quinolin-3-one]	26%	78%	–	–
CCN(CC)C(=O)c1c(-c2ccc3c(c2)CC[C@H]2N(C)C(=O)CC[C@]32C)ccc2ccccc12 [Example 35, (+)-(4aR)-(10bR)-4-methyl-8-(2-[1-diethylcarboxamido]naphthyl)-10b-methyl-1,2,3,4,4a,5,6,10b-octahydrobenzo[f]-quinolin-3-one]	27%	17%	–	–
CN1C(=O)CC[C@]2(C)c3ccc(Sc4ccc5cc([N+](=O)[O-])ccc5n4)cc3CC[C@@H]12 [Example 168, (+)-(4aR)-(10bR)-4-methyl-8-(6-nitro-2-quinolinylthio)-10b-methyl-1,2,3,4,4a,5,6,10b-octahydrobenzo[f]quinolin-3-one]	41%	85%	–	–
C[C@]12CCC(=O)N[C@@H]1CCc1cc(Sc3ccccc3F)ccc12 [Example 17, (+)-(4aR)-(10bR)-8-(2-fluorophenylthio)-10b-methyl-1,2,3,4,4a,5,6,10b-octahydrobenzo[f]quinolin-3-one]	19%	29%	–	–
COc1ccc(Sc2ccc3c(c2)CC[C@H]2N(C)C(=O)CC[C@]32C)cc1 [Example 105, (+)-(4aR)-(10bR)-4,10b-dimethyl-8-(4-methoxyphenylthio)-1,2,3,4,-4a,5,6,10b-octahydrobenzo[f]quinolin-3-one]	33%	92%	–	–
CN1C(=O)CC[C@]2(C)c3ccc(-c4ccc5ncsc5c4)cc3CC[C@@H]12 [Example 249, (+)-(4aR)-(10bR)-4-methyl-8-(6-benzothiazolyl)-10b-methyl-1,2,3,4,4a,5,6,10b-octahydrobenzo[f]quinolin-3-one]	24%	69%	–	–
CN1C(=O)CC[C@]2(C)c3ccc(-c4ccc(C(F)(F)F)cc4[N+](=O)[O-])cc3CC[C@@H]12 [Example 134, (+)-(4aR)-(10bR)-4-methyl-8-(2-nitro-4-trifluoromethylphenyl)-10b-methyl-1,2,3,4,4a,5,6,10b-octahydrobenzo[f]-quinolin-3-one]	46%	97%	–	–
CN1C(=O)CC[C@]2(C)c3ccc(-c4ccc5cc(OCc6ccccc6)ccc5c4)cc3CC[C@@H]12 [Example 62, (+)-(4aR)-(10bR)-4-methyl-8-(2-[6-benzyloxy]naphthyl)-10b-methyl-1,2,3,4,4a,5,6,10b-octahydrobenzo[f]quinolin-3-one]	42%	45%	–	–
CN1C(=O)CC[C@]2(C)c3ccc(C#Cc4ccccc4)cc3CC[C@@H]12 [Example 284, (4aR)-(10bR)-4,10b-dimethyl-8-(2-phenylethynyl)-1,2,3,4,4a,5,6,10b-octahydrobenzo[f]quinolin-3-one]	–	–	63%	86%
CN1C(=O)CC[C@]2(C)c3ccc(-c4cc5ccccc5c5ccccc45)cc3CC[C@@H]12 [Example 67, (+)-(4aR)-(10bR)-4-methyl-8-(9-phenanthrenyl)-10b-methyl-1,2,3,4,4a,5,6,10b-octahydrobenzo[f]quinolin-3-one]	–	–	54%	22%
CN1C(=O)CC[C@]2(C)c3ccc(Sc4nc5c(OC(F)(F)F)cccc5s4)cc3CC[C@@H]12 [Example 188, (+)-(4aR)-(10bR)-4-methyl-8-(4-trifluoromethoxy-2-benzothiazolylthio)-10b-methyl-1,2,3,4,4a,5,6,10b-octahydrobenzo[f]-quinolin-3-one]	78%	88%	–	–
CN1C(=O)CC[C@]2(C)c3ccc(-c4ccc(O)c(Cl)c4)cc3CC[C@@H]12 [Example 25, (+)-(4aR)-(10bR)-4-methyl-8-(3-chloro-4-hydroxyphenyl)-10b-methyl-1,2,3,4,4a,5,6,10b-octahydrobenzo[f]quinolin-3-one]	31%	83%	–	–
CN1C(=O)CC[C@]2(C)c3ccc(-c4ccccc4Cl)cc3CC[C@@H]12 [Example 41, (+)-(4aR)-(10bR)-4-methyl-8-(2-chlorophenyl)-10b-methyl-1,2,3,4,4a,5,6,10b-octahydrobenzo[f]quinolin-3-one]	18%	88%	–	–
CN1C(=O)CC[C@]2(C)c3ccc(-c4nc5ccccc5[nH]4)cc3CC[C@@H]12 [Example 256, (+)-(4aR)-(10bR)-4-methyl-8-(2-benzimidazolyl)-10b-methyl-1,2,3,4,4a,5,6,10b-octahydrobenzo[f]quinolin-3-one]	18%	38%	–	–
CN1C(=O)CC[C@]2(C)c3ccc(Sc4cnc5ccccc5c4)cc3CC[C@@H]12 [Example 106, (4aR)-(10bR)-4,10b-dimethyl-8-(3-quinolinylthio)-1,2,3,4,4a,5,6,10b-octahydrobenzo[f]quinolin-3-one]	39%	73%	–	–
CN1C(=O)CC[C@]2(C)c3ccc(-c4ccc(COc5ccc(F)cc5)s4)cc3CC[C@@H]12 [Example 129, (+)-(4aR)-(10bR)-4-methyl-8-(2-[5-(4-fluorophenoxy-methyl)thienyl])-10b-methyl-1,2,3,4,4a,5,6,10b-octahydrobenzo[f]-quinolin-3-one]	36%	91%	–	–
CN1C(=O)CC[C@]2(C)c3ccc(-c4ccc(-c5ccccc5)cc4)cc3CC[C@@H]12 [Example 84, (+)-(4aR)-(10bR)-4-methyl-8-(4-biphenyl)-10b-methyl-1,2,3,4,4a,5,6,10b-octahydrobenzo[f]quinolin-3-one]	23%	88%	–	–
CN1C(=O)CC[C@]2(C)c3ccc(Sc4ccc5ccccc5n4)cc3CC[C@@H]12 [Example 107, (+)-(4aR)-(10bR)-4,10b-dimethyl-8-(2-quinolinylthio)-1,2,3,4,-4a,5,6,10b-octahydrobenzo[f]quinolin-3-one]	83%	80%	–	–
CN1C(=O)CC[C@]2(C)c3ccc(Sc4cccc(F)c4)cc3CC[C@@H]12 [Example 109, (+)-(4aR)-(10bR)-4,10b-dimethyl-8-(3-fluorophenylthio)-1,2,3,4,4a,5,6,10b-octahydrobenzo[f]quinolin-3-one]	25%	97%	–	–
CN1C(=O)CC[C@]2(C)c3ccc(-c4ccc(S(C)(=O)=O)cc4)cc3CC[C@@H]12 [Example 204, (+)-(4aR)-(10bR)-4-methyl-8-(4-methylsulfonylphenyl)-10b-methyl-1,2,3,4,4a,5,6,10b-octahydrobenzo[f]quinolin-3-one]	39%	34%	–	–
CN1C(=O)CC[C@]2(C)c3ccc(-c4ccc(F)cc4F)cc3CC[C@@H]12 [Example 231, (+)-(4aR)-(10bR)-4-methyl-8-(2,4-difluorophenyl)-10b-methyl-1,2,3,4,4a,5,6,10b-octahydrobenzo[f]quinolin-3-one]	21%	80%	–	–
CN1C(=O)CC[C@]2(C)c3ccc(-c4ccccn4)cc3CC[C@@H]12 [Example 242, (+)-(4aR)-(10bR)-4-methyl-8-(2-pyridinyl)-10b-methyl-1,2,3,4,4a,5,6,10b-octahydrobenzo[f]quinolin-3-one]	24%	5%	–	–
CN1C(=O)CC[C@]2(C)c3ccc(Sc4ccncc4)cc3CC[C@@H]12 [Example 115, (+)-(4aR)-(10bR)-4,10b-dimethyl-8-(4-pyridinylthio)-1,2,3,4,4a,5,6,10b-octahydrobenzo[f]quinolin-3-one]	20%	31%	–	–
CN1C(=O)CC[C@]2(C)c3ccc(-c4nc5c(F)cccc5s4)cc3CC[C@@H]12 [Example 261, (+)-(4aR)-(10bR)-4-methyl-8-(2-[4-fluoro]benzothiazolyl)-10b-methyl-1,2,3,4,4a,5,6,10b-octahydrobenzo[f]quinolin-3-one]	49%	86%	–	–

Source: patent US5622962A, “5α-reductase inhibitors” (priority 1995, dated 1997)
